Data taken from patent US20240043404A1 (AbbVie Inc., priority 2009, published 2024).
Read-outs that look alike come from different tables or passages of the source.

System: RS4;11 cells
Assay: RS4;11 cell viability assay (CellTiter Glo);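 also: acute lymphoblastic leukemia line RS4,11, EC50 derived from percentage of viable cells after treatment relative to untreated controls, cell killing taken as a measure of Bcl-2 inhibition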
Type: cell-based, human
Conditions: Homo sapiens, read-out: RS4
[1] = RS4-11, 48 h, 50,000 cells per well, 10% human serum, 48 hours, 11 EC50 Values

Procedure: The acute lymphoblastic leukemia (ALL) cell line RS4;11 was used as the primary human cell line to assess the cellular activity of Bcl-2 selective agents in vitro and their efficacy in vivo.
Cell cytotoxicity EC50 values were assessed using CellTiter Glo (Promega) according to the manufacturer's recommendations. The EC50 values were determined as a percentage of viable cells following treatment compared to the untreated control cells.

Row | EC50 [1] [nM] | EC50 (RS4-11, Table 4, selected compounds in U.S. Pat. Application No. 12/631404, 11 EC50) [nM] | EC50 (RS4-11, Table 5, direct comparison Z=N with corresponding analogs Z=C, 11 EC50) [nM] | Compound
1 | 45 | 45 | 45 | CC1(C)CC(c2ccc(Cl)cc2)=C(CN2CCN(c3ccc(C(=O)NS(=O)(=O)c4ccc(NCC5CCOCC5)c([N+](=O)[O-])c4)c(Oc4ccc5[nH]ccc5c4)c3)CC2)CO1 [Example 23, 4-(4-{[4-(4-chlorophenyl)-6,6-dimethyl-5,6-dihydro-2H-pyran-3-yl]methyl}piperazin-1-yl)-2-(1H-indol-5-yloxy)-N-({3-nitro-4-[(tetrahydro-2H-pyran-4-ylmethyl)amino]phenyl}sulfonyl)benzamide]
2 | 9.83 |  |  | CC1(C)CCC(CN2CCN(c3ccc(C(=O)NS(=O)(=O)c4ccc(OCC5CCOCC5)c([N+](=O)[O-])c4)c(Oc4cnc5[nH]ccc5c4)c3)CC2)=C(c2ccc(Cl)cc2)C1 [Example 24, 4-(4-{[2-(4-chlorophenyl)-4,4-dimethylcyclohex-1-en-1-yl]methyl}piperazin-1-yl)-N-{[3-nitro-4-(tetrahydro-2H-pyran-4-ylmethoxy)phenyl]sulfonyl}-2-(1H-pyrrolo[2,3-b]pyridin-5-yloxy)benzamide]
3 | 7 |  |  | CC1(C)CCC(CN2CCN(c3ccc(C(=O)NS(=O)(=O)c4ccc(NCC5COCCO5)c([N+](=O)[O-])c4)c(Oc4cnc5[nH]ccc5c4)c3)CC2)=C(c2ccc(Cl)cc2)C1 (stereo not drawn) [Example 25, 4-(4-{[2-(4-chlorophenyl)-4,4-dimethylcyclohex-1-en-1-yl]methyl}piperazin-1-yl)-N-({4-[(1,4-dioxan-2-ylmethyl)amino]-3-nitrophenyl}sulfonyl)-2-(1H-pyrrolo[2,3-b]pyridin-5-yloxy)benzamide]
4 | 58.9 |  |  | CC1(C)CCC(CN2CCN(c3ccc(C(=O)NS(=O)(=O)c4ccc(NCC(F)(F)F)c([N+](=O)[O-])c4)c(Oc4cnc5[nH]ccc5c4)c3)CC2)=C(c2ccc(Cl)cc2)C1 [Example 26, 4-(4-{[2-(4-chlorophenyl)-4,4-dimethylcyclohex-1-en-1-yl]methyl}piperazin-1-yl)-N-({3-nitro-4-[(2,2,2-trifluoroethyl)amino]phenyl}sulfonyl)-2-(1H-pyrrolo[2,3-b]pyridin-5-yloxy)benzamide]
5 | 332 |  |  | CC1(C)CCC(CN2CCN(c3ccc(C(=O)NS(=O)(=O)c4ccc(NCCC(F)(F)F)c([N+](=O)[O-])c4)c(Oc4cnc5[nH]ccc5c4)c3)CC2)=C(c2ccc(Cl)cc2)C1 [Example 27, 4-(4-{[2-(4-chlorophenyl)-4,4-dimethylcyclohex-1-en-1-yl]methyl}piperazin-1-yl)-N-({3-nitro-4-[(3,3,3-trifluoropropyl)amino]phenyl}sulfonyl)-2-(1H-pyrrolo[2,3-b]pyridin-5-yloxy)benzamide]
6 | 41.9 |  |  | CC1(C)CCC(CN2CCN(c3ccc(C(=O)NS(=O)(=O)c4ccc(OC[C@@H]5COCCO5)c([N+](=O)[O-])c4)c(Oc4cnc5[nH]ccc5c4)c3)CC2)=C(c2ccc(Cl)cc2)C1 [Example 28, 4-(4-{[2-(4-chlorophenyl)-4,4-dimethylcyclohex-1-en-1-yl]methyl}piperazin-1-yl)-N-({4-[(2S)-1,4-dioxan-2-ylmethoxy]-3-nitrophenyl}sulfonyl)-2-(1H-pyrrolo[2,3-b]pyridin-5-yloxy)benzamide]
7 | 20.5 |  |  | CO[C@H]1CC[C@@H](CNc2ccc(S(=O)(=O)NC(=O)c3ccc(N4CCN(CC5=C(c6ccc(Cl)cc6)CC(C)(C)CC5)CC4)cc3Oc3cnc4[nH]ccc4c3)cc2[N+](=O)[O-])CC1 [Example 29, Cis-4-(4-{[2-(4-chlorophenyl)-4,4-dimethylcyclohex-1-en-1-yl]methyl}piperazin-1-yl)-N-[(4-{[(4-methoxycyclohexyl)methyl]amino}-3-nitrophenyl)sulfonyl]-2-(1H-pyrrolo[2,3-b]pyridin-5-yloxy)benzamide]
8 | 15.3 |  |  | CC1(C)CCC(CN2CCN(c3ccc(C(=O)NS(=O)(=O)c4ccc(OC[C@H]5COCCO5)c([N+](=O)[O-])c4)c(Oc4cnc5[nH]ccc5c4)c3)CC2)=C(c2ccc(Cl)cc2)C1 [Example 30, 4-(4-{[2-(4-chlorophenyl)-4,4-dimethylcyclohex-1-en-1-yl]methyl}piperazin-1-yl)-N-({4-[(2R)-1,4-dioxan-2-ylmethoxy]-3-nitrophenyl}sulfonyl)-2-(1H-pyrrolo[2,3-b]pyridin-5-yloxy)benzamide]
9 | 15.7 |  |  | CC1(C)CC(c2ccc(Cl)cc2)=C(CN2CCN(c3ccc(C(=O)NS(=O)(=O)c4ccc(NCC5COCCO5)c([N+](=O)[O-])c4)c(Oc4cnc5[nH]ccc5c4)c3)CC2)CO1 (stereo not drawn) [Example 31, 4-(4-{[4-(4-chlorophenyl)-6,6-dimethyl-5,6-dihydro-2H-pyran-3-yl]methyl}piperazin-1-yl)-N-({4-[(1,4-dioxan-2-ylmethyl)amino]-3-nitrophenyl}sulfonyl)-2-(1H-pyrrolo[2,3-b]pyridin-5-yloxy)benzamide]
10 | 81.5 |  |  | CC1(C)CC(c2ccc(Cl)cc2)=C(CN2CCN(c3ccc(C(=O)NS(=O)(=O)c4ccc(OCC5COCCO5)c([N+](=O)[O-])c4)c(Oc4cnc5[nH]ccc5c4)c3)CC2)CO1 (stereo not drawn) [Example 32, 4-(4-{[4-(4-chlorophenyl)-6,6-dimethyl-5,6-dihydro-2H-pyran-3-yl]methyl}piperazin-1-yl)-N-{[4-(1,4-dioxan-2-ylmethoxy)-3-nitrophenyl]sulfonyl}-2-(1H-pyrrolo[2,3-b]pyridin-5-yloxy)benzamide]
11 | 7.11 |  |  | CC1(C)CC(c2ccc(Cl)cc2)=C(CN2CCN(c3ccc(C(=O)NS(=O)(=O)c4ccc(N[C@H]5CC[C@H](N6CCOCC6)CC5)c([N+](=O)[O-])c4)c(Oc4cnc5[nH]ccc5c4)c3)CC2)CO1 [Example 33, Trans-4-(4-{[4-(4-chlorophenyl)-6,6-dimethyl-5,6-dihydro-2H-pyran-3-yl]methyl}piperazin-1-yl)-N-({4-[(4-morpholin-4-ylcyclohexyl)amino]-3-nitrophenyl}sulfonyl)-2-(1H-pyrrolo[2,3-b]pyridin-5-yloxy)benzamide]
12 | 7.48 |  |  | CO[C@H]1CC[C@H](CNc2ccc(S(=O)(=O)NC(=O)c3ccc(N4CCN(CC5=C(c6ccc(Cl)cc6)CC(C)(C)CC5)CC4)cc3Oc3cnc4[nH]ccc4c3)cc2[N+](=O)[O-])CC1 [Example 34, Trans-4-(4-{[2-(4-chlorophenyl)-4,4-dimethylcyclohex-1-en-1-yl]methyl}piperazin-1-yl)-N-[(4-{[(4-methoxycyclohexyl)methyl]amino}-3-nitrophenyl)sulfonyl]-2-(1H-pyrrolo[2,3-b]pyridin-5-yloxy)benzamide]
13 | 291 |  |  | CC1(C)CC(c2ccc(Cl)cc2)=C(CN2CCN(c3ccc(C(=O)NS(=O)(=O)c4cnc(OCC5CCOCC5)c(C#N)c4)c(Oc4cnc5[nH]ccc5c4)c3)CC2)CO1 [Example 35, 4-(4-{[4-(4-chlorophenyl)-6,6-dimethyl-5,6-dihydro-2H-pyran-3-yl]methyl}piperazin-1-yl)-N-{[5-cyano-6-(tetrahydro-2H-pyran-4-ylmethoxy)pyridin-3-yl]sulfonyl}-2-(1H-pyrrolo[2,3-b]pyridin-5-yloxy)benzamide]
14 | 181 |  |  | CC1(C)CCC(CN2CCN(c3ccc(C(=O)NS(=O)(=O)c4cnc(OCC5CCOCC5)c(C#N)c4)c(Oc4cnc5[nH]ccc5c4)c3)CC2)=C(c2ccc(Cl)cc2)C1 [Example 36, 4-(4-{[2-(4-chlorophenyl)-4,4-dimethylcyclohex-1-en-1-yl]methyl}piperazin-1-yl)-N-{[5-cyano-6-(tetrahydro-2H-pyran-4-ylmethoxy)pyridin-3-yl]sulfonyl}-2-(1H-pyrrolo[2,3-b]pyridin-5-yloxy)benzamide]
15 | 1.18 |  |  | CC1(C)CCC(CN2CCN(c3ccc(C(=O)NS(=O)(=O)c4ccc(OCC5(F)CCOCC5)c([N+](=O)[O-])c4)c(Oc4cnc5[nH]ccc5c4)c3)CC2)=C(c2ccc(Cl)cc2)C1 [Example 37, 4-(4-{[2-(4-chlorophenyl)-4,4-dimethylcyclohex-1-en-1-yl]methyl}piperazin-1-yl)-N-({4-[(4-fluorotetrahydro-2H-pyran-4-yl)methoxy]-3-nitrophenyl}sulfonyl)-2-(1H-pyrrolo[2,3-b]pyridin-5-yloxy)benzamide]
16 | 3510 |  |  | CC1(C)CCC(CN2CCN(c3ccc(C(=O)NS(=O)(=O)c4ccc(OCC5CCOCC5)c(C(N)=O)c4)c(Oc4cnc5[nH]ccc5c4)c3)CC2)=C(c2ccc(Cl)cc2)C1 [Example 38, N-{[3-(aminocarbonyl)-4-(tetrahydro-2H-pyran-4-ylmethoxy)phenyl]sulfonyl}-4-(4-{[2-(4-chlorophenyl)-4,4-dimethylcyclohex-1-en-1-yl]methyl}piperazin-1-yl)-2-(1H-pyrrolo[2,3-b]pyridin-5-yloxy)benzamide]
17 | 19.7 |  |  | CC1(C)CCC(CN2CCN(c3ccc(C(=O)NS(=O)(=O)c4ccc(N[C@H]5CC[C@@H](N6CCOCC6)CC5)c([N+](=O)[O-])c4)c(Oc4cnc5[nH]ccc5c4)c3)CC2)=C(c2ccc(Cl)cc2)C1 [Example 39, Cis-4-(4-{[2-(4-chlorophenyl)-4,4-dimethylcyclohex-1-en-1-yl]methyl}piperazin-1-yl)-N-({4-[(4-morpholin-4-ylcyclohexyl)amino]-3-nitrophenyl}sulfonyl)-2-(1H-pyrrolo[2,3-b]pyridin-5-yloxy)benzamide]
18 | 99.7 |  |  | CC1(C)CCC(CN2CCN(c3ccc(C(=O)NS(=O)(=O)c4cnc(OCC5CCOCC5)c(Cl)c4)c(Oc4cnc5[nH]ccc5c4)c3)CC2)=C(c2ccc(Cl)cc2)C1 [Example 40, 4-(4-{[2-(4-chlorophenyl)-4,4-dimethylcyclohex-1-en-1-yl]methyl}piperazin-1-yl)-N-{[5-chloro-6-(tetrahydro-2H-pyran-4-ylmethoxy)pyridin-3-yl]sulfonyl}-2-(1H-pyrrolo[2,3-b]pyridin-5-yloxy)benzamide]
19 | 58 |  |  | CC1(C)CC(c2ccc(Cl)cc2)=C(CN2CCN(c3ccc(C(=O)NS(=O)(=O)c4cnc(OCC5CCOCC5)c(Cl)c4)c(Oc4cnc5[nH]ccc5c4)c3)CC2)CO1 [Example 41, 4-(4-{[4-(4-chlorophenyl)-6,6-dimethyl-5,6-dihydro-2H-pyran-3-yl]methyl}piperazin-1-yl)-N-{[5-chloro-6-(tetrahydro-2H-pyran-4-ylmethoxy)pyridin-3-yl]sulfonyl}-2-(1H-pyrrolo[2,3-b]pyridin-5-yloxy)benzamide]
